From ChEMBL document CHEMBL1158438, “Discovery and structure-guided drug design of inhibitors of 11beta-hydroxysteroid-dehydrogenase type I based on a spiro-carboxamide scaffold” (Bioorg Med Chem Lett, 2009)

Experiments:
[1] = biological target: T1, 11-beta-hydroxysteroid dehydrogenase 1 (Homo sapiens, UniProt P28845); test: Inhibition of human 11beta-HSD1
[2] = biological target: T2, 11-beta-hydroxysteroid dehydrogenase type 2 (Homo sapiens, UniProt P80365); test: Inhibition of human recombinant 11beta-HSD2 expressed in Escherichia coli by HTRF assay
T2 sequence (P80365 whole entry): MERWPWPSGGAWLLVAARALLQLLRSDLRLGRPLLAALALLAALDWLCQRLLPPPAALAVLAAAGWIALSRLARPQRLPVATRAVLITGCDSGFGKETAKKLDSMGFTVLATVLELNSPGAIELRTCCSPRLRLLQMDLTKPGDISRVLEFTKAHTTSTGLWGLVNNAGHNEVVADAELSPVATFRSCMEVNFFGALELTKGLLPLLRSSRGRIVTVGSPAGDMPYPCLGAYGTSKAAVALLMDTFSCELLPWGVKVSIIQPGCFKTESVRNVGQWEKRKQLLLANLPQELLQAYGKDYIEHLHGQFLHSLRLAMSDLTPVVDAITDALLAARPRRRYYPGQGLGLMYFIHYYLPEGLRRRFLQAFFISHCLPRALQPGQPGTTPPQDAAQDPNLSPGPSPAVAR

Homo sapiens = species on record: Homo sapiens; test: Selectivity ratio, IC50 for human recombinant 11beta-HSD2 to IC50 for human recombinant 11beta-HSD1
[3] = biological target: 11-beta-hydroxysteroid dehydrogenase 1 (Mus musculus, UniProt P50172); test: Inhibition of 11beta-HSD1 in mouse liver microsomes fraction; set-up: species or system Microsome
[4] = biological target: T1, 11-beta-hydroxysteroid dehydrogenase 1; test: Inhibition of human recombinant 11beta-HSD1 expressed in Escherichia coli by HTRF assay
Target sequence in this assay (P28845 whole entry): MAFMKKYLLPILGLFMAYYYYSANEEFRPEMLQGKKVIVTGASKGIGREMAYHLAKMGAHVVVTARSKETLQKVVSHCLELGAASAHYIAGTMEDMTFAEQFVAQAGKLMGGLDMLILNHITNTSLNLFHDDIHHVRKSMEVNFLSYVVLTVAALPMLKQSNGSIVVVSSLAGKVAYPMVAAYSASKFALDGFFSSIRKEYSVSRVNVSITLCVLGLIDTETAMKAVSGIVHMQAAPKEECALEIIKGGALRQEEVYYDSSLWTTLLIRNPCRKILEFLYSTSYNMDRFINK

[5] = biological target: T1, 11-beta-hydroxysteroid dehydrogenase 1
Target sequence in this assay (P28845 whole entry, looked up): as the sequence (P28845 whole entry) above

Chain of 11-beta-hydroxysteroid dehydrogenase 1 (Mus musculus, UniProt P50172) (P50172 whole entry): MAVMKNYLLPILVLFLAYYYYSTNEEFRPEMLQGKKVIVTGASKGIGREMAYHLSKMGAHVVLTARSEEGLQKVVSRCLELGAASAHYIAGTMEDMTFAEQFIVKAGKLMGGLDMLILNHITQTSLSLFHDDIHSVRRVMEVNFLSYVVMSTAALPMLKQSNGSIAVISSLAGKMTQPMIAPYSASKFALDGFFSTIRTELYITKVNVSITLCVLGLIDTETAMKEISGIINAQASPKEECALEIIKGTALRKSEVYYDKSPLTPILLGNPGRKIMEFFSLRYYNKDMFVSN

| Structure (SMILES) | BEI [1] | IC50 [1] | IC50 [2] | Ratio IC50 (Homo sapiens) | IC50 [3] | IC50 [4] | BEI [5] |
| --- | --- | --- | --- | --- | --- | --- | --- |
| O=C1CC2(CCN(C(=O)C3(c4ccccc4)CC3)CC2)Oc2ccc(F)cc21 | 14.8 kDa-1 | 2500 nM | – | – | – | – | – |
| O=C(N1CCC2(CCCc3ccccc32)C1)C1(c2ccc(Cl)cc2)CC1 (stereo not given) | – | – | > 100000 nM | > 4500 | 3400 nM | 22 nM | 20.9 kDa-1 |
| O=C(N1CCC2(CCCCC2)C1)C1(c2ccc(Cl)cc2)CC1 | – | – | > 100000 nM | > 16000 | 3400 nM | 6 nM | 25.9 kDa-1 |
| O=C(N1CCC2(CCc3ccccc32)C1)C1(c2ccc(Cl)cc2)CC1 (stereo not given) | – | – | > 100000 nM | – | 2600 nM | – | 21.6 kDa-1 |
| O=C(N1CCC2(CCCCC2)C1)C1(c2ccccc2)CC1 | – | – | > 100000 nM | > 200000 | 377 nM | 0.5 nM | 32.7 kDa-1 |
